In US8507538B2, “Selective heterocyclic sphingosine 1 phosphate receptor modulators” (Receptos, Inc., priority 2009, dated 2013):
pEC50: −log10 of the molar value. Where a name gives a salt, the structure may show the parent alone.

target: S1P1/EDG1 (Homo sapiens, UniProt P21453); assay: S1P1 CRE-bla CHOK1 reporter assay (inhibition of Forskolin induced cAMP); format: cell-based; details: agonist activity range, Table 2; read-out: S1P1 ACTIVITY
Source text: A mammalian expression plasmid containing S1P1/EDG1 cloned into pcDNA3.1 was purchased from Missouri S&T cDNA Resource Centre. The nucleotide and amino acid sequence of human S1P1/EDG1 are published in Hla and Maciag (J Biol Chem, 265(1990), 9308-9313). S1P1/pcDNA3.1 was transfected into the CRE-bla CHO K1 (Invitrogen) cell line, and stable single cell clones were selected using standard techniques. Expression of functional SIP1/EDG1 receptor was confirmed by cell surface FACS with a S1P1 antibody (R&D Systems, clone 218713) and S1P-mediated inhibition of Forskolin induced cAMP.
Cells were seeded into 384-well black wall/clear bottom plates at 10^4 cells/well/19.5 μl assay media (DMEM-phenol free, 0.5% charcoal/dextran stripped serum, 2 mM glutamine, 0.1 mM NEAA, 1 mM Na-Pyruvate, 25 mM Hepes) and incubated for 18 hrs at 37° C. in 5% CO2. Dose response curves (10-point) were generated in 10 mM Hepes, 0.1% Pluronic F127, in the presence of Forskolin. Cells were treated with 0.5 μl compound in the presence of 2 μM Forskolin for 4 hrs at 37° C. The FRET-based β-lactamase fluorescent substrate (LiveBLAzer™ FRET B/G Loading Kit CC4-AM; Invitrogen) was prepared according to manufacturer's directions, and incubated with cells for 2 hrs at room temperature. Plates were read at Ex:410/Em:458 and Ex:410/Em:522, and the response ratio determined. Data was analyzed by non-linear regression to determine the EC50 for inhibition of Forskolin induced cAMP.

Chain of S1P1/EDG1 (P21453 whole entry): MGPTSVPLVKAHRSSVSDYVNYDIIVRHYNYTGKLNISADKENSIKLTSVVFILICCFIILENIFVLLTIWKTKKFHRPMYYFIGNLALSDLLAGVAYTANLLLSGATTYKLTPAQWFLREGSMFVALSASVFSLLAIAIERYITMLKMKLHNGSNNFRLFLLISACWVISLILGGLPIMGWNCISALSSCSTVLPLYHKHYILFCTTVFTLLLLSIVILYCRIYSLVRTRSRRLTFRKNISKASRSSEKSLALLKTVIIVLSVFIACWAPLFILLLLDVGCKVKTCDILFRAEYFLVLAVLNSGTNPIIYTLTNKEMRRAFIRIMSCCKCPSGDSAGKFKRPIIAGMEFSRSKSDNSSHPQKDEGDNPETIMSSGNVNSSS

Q: With CC(C)Oc1ccc(-c2ncc(-c3cccc4c3CCC4NS(=O)(=O)CC(=O)O)s2)cc1C#N (stereo in doubt) [Compound 158, (R)-2-(N-(4-(2-(3-cyano-4-isopropoxyphenyl)thiazol-5-yl)-2,3-dihydro-1H-inden-1-yl)sulfamoyl)acetic acid] as the molecule, how does the pEC50 read?
A: The pEC50 was over 10.30.

Q: How did the pEC50 turn out when CC(C)Oc1ccc(-c2ncc(-c3cccc4c3CCC4NS(=O)(=O)CC(=O)N3CCOCC3)s2)cc1C#N (stereo in doubt) [Compound 162, (R)—N-(4-(2-(3-cyano-4-isopropoxyphenyl)thiazol-5-yl)-2,3-dihydro-1H-inden-1-yl)-2-morpholino-2-oxoethanesulfonamide] was run?
A: Its pEC50 is 9.30 to 10.30.

Q: How did the pEC50 turn out when CC(C)Oc1ccc(-c2ncc(-c3cccc4c3CCC4NS(=O)(=O)CCO)s2)cc1C#N (stereo in doubt) [Compound 164, (R)-N-(4-(2-(3-cyano-4-isopropoxyphenyl)thiazol-5-yl)-2,3-dihydro-1H-inden-1-yl)-2-hydroxyethanesulfonamide] was run?
A: Its pEC50 is 9.30 to 10.30.

Q: How did the pEC50 turn out when CC(C)Oc1ccc(-c2ncc(-c3cccc4c3CCC4NCCS(C)(=O)=O)s2)cc1C#N (stereo in doubt) [Compound 220, (R)-2-isopropoxy-5-(5-(1-((2-(methylsulfonyl)ethyl)amino)-2,3-dihydro-1H-inden-4-yl)thiazol-2-yl)benzonitrile] was run?
A: Its pEC50 is 9.30 to 10.30.

Q: CC(C)Oc1ccc(-c2nnc(-c3cccc4c3CC[C@@H]4O)s2)cc1C#N [Compound 1, (S)-5-(5-(1-hydroxy-2,3-dihydro-1H-inden-4-yl)-1,3,4-thiadiazol-2-yl)-2-isopropoxybenzonitrile] was tested. Which pEC50 did it give?
A: Its pEC50 is 9.30 to 10.30.

Q: With CCOc1ccc(-c2nnc(-c3cccc4c3CCC4O)s2)cc1OCC (stereo not drawn) [Compound 3] as the molecule, how does the pEC50 read?
A: Its pEC50 is 8.30 to 9.30.

Q: With CC(C)Oc1ccc(-c2nnc(-c3cccc4c3CC[C@@H]4N)s2)cc1C#N [Compound 4, (S)-5-(5-(1-amino-2,3-dihydro-1H-inden-4-yl)-1,3,4-thiadiazol-2-yl)-2-isopropoxybenzonitrile hydrochloride] as the molecule, how does the pEC50 read?
A: The pEC50 was 8.30 to 9.30.

Q: CCOc1ccc(-c2nnc(-c3cccc4c3CC[C@@H]4N)s2)cc1OCC [Compound 6] was tested. Which pEC50 did it give?
A: The pEC50 was 8.30 to 9.30.

Q: With CC(C)Oc1ccc(-c2nnc(-c3cccc4c3CC[C@@H]4NC(=O)CO)s2)cc1C#N [Compound 7, (S)-N-(4-(5-(3-cyano-4-isopropoxyphenyl)-1,3,4-thiadiazol-2-yl)-2,3-dihydro-1H-inden-1-yl)-2-hydroxyacetamide] as the molecule, how does the pEC50 read?
A: The pEC50 was over 10.30.

Q: How did the pEC50 turn out when CC(C)Oc1ccc(-c2nnc(-c3cccc4c3CC[C@H]4NC(=O)CO)s2)cc1C#N [Compound 8, (R)-N-(4-(5-(3-cyano-4-isopropoxyphenyl)-1,3,4-thiadiazol-2-yl)-2,3-dihydro-1H-inden-1-yl)-2-hydroxyacetamide] was run?
A: The pEC50 was 9.30 to 10.30.

Q: With CC(C)Oc1ccc(-c2nnc(-c3cccc4c3CC[C@@H]4NC(=O)CN)s2)cc1C#N [Compound 9] as the molecule, how does the pEC50 read?
A: Its pEC50 is 9.30 to 10.30.

Q: COCC(=O)N[C@@H]1CCc2c(-c3nnc(-c4ccc(OC(C)C)c(C#N)c4)s3)cccc21 [Compound 11] was tested. Which pEC50 did it give?
A: The pEC50 was 9.30 to 10.30.

Q: With COCC(=O)N[C@H]1CCc2c(-c3nnc(-c4ccc(OC(C)C)c(C#N)c4)s3)cccc21 [Compound 12] as the molecule, how does the pEC50 read?
A: Its pEC50 is 8.30 to 9.30.

Q: How did the pEC50 turn out when CC(C)Oc1ccc(-c2nnc(-c3cccc4c3CC[C@@H]4NC(=O)CN(C)C)s2)cc1C#N [Compound 13] was run?
A: The pEC50 was 8.30 to 9.30.

Q: CC(=O)N[C@H]1CCc2c(-c3nnc(-c4ccc(OC(C)C)c(C#N)c4)s3)cccc21 [Compound 14, (S)-N-(4-(5-(3-cyano-4-isopropoxyphenyl)-1,3,4-thiadiazol-2-yl)-2,3-dihydro-1H-inden-1-yl)acetamide] was tested. Which pEC50 did it give?
A: The pEC50 was 9.30 to 10.30.

Q: CC(=O)N[C@@H]1CCc2c(-c3nnc(-c4ccc(OC(C)C)c(C#N)c4)s3)cccc21 [Compound 15, (R)-N-(4-(5-(3-cyano-4-isopropoxyphenyl)-1,3,4-thiadiazol-2-yl)-2,3-dihydro-1H-inden-1-yl)acetamide] was tested. Which pEC50 did it give?
A: The pEC50 was 9.30 to 10.30.

Q: How did the pEC50 turn out when COC(=O)N[C@H]1CCc2c(-c3nnc(-c4ccc(OC(C)C)c(C#N)c4)s3)cccc21 [Compound 16, (S)-methyl(4-(5-(3-cyano-4-isopropoxyphenyl)-1,3,4-thiadiazol-2-yl)-2,3-dihydro-1H-inden-1-yl)carbamate] was run?
A: The pEC50 was 8.30 to 9.30.

Q: With CC(C)Oc1ccc(-c2nnc(-c3cccc4c3CC[C@@H]4NCCO)s2)cc1C#N [Compound 18, (S)-5-(5-(1-((2-hydroxyethyl)amino)-2,3 dihydro-1H-inden-4-yl)-1,3,4-thiadiazol-2-yl)-2-isopropoxy-benzonitrile] as the molecule, how does the pEC50 read?
A: The pEC50 was 8.30 to 9.30.

Q: COCCN[C@H]1CCc2c(-c3nnc(-c4ccc(OC(C)C)c(C#N)c4)s3)cccc21 [Compound 19] was tested. Which pEC50 did it give?
A: Its pEC50 is 8.30 to 9.30.

Q: How did the pEC50 turn out when CC(C)Oc1ccc(-c2nnc(-c3cccc4c3CC[C@@H]4NCC(=O)N(C)C)s2)cc1C#N [Compound 21, (S)-2-((4-(5-(3-cyano-4-isopropoxyphenyl)-1,3,4-thiadiazol-2-yl)-2,3-dihydro-1H-inden-1-yl)amino)-N,N-dimethylacetamide hydrochloride] was run?
A: Its pEC50 is 8.30 to 9.30.

Q: With CC(C)Oc1ccc(-c2nnc(-c3cccc4c3CC[C@@H]4NCC(=O)N3CCCC3)s2)cc1C#N [Compound 23] as the molecule, how does the pEC50 read?
A: The pEC50 was 8.30 to 9.30.

Q: How did the pEC50 turn out when CC(C)Oc1ccc(-c2nnc(-c3cccc4c3CC[C@@H]4NCC(=O)N3CCOCC3)s2)cc1C#N [Compound 24] was run?
A: The pEC50 was 8.30 to 9.30.

Q: How did the pEC50 turn out when CC(C)Oc1ccc(-c2nnc(-c3cccc4c3CC[C@@H]4NCC(=O)N3CCOCC3)s2)cc1C#N [Compound 25] was run?
A: The pEC50 was 9.30 to 10.30.

Q: How did the pEC50 turn out when CC(C)Oc1ccc(-c2nnc(-c3cccc4c3CC[C@@H]4NCC(=O)O)s2)cc1C#N [Compound 26, (S)-2-((4-(5-(3-cyano-4-isopropoxyphenyl)-1,3,4-thiadiazol-2-yl)-2,3-dihydro-1H-inden-1-yl)amino)acetic acid] was run?
A: Its pEC50 is 9.30 to 10.30.

Q: With CC(C)Oc1ccc(-c2nnc(-c3cccc4c3CC[C@@H]4NCc3ncc[nH]3)s2)cc1C#N [Compound 28, (S)-5-(5-(1-(((1H-imidazol-2-yl)methyl)amino)-2,3-dihydro-1H-inden-4-yl)-1,3,4-thiadiazol-2-yl)-2-isopropoxybenzonitrile] as the molecule, how does the pEC50 read?
A: The pEC50 was 9.30 to 10.30.

Q: How did the pEC50 turn out when COCCN(CCOC)[C@H]1CCc2c(-c3nnc(-c4ccc(OC(C)C)c(C#N)c4)s3)cccc21 [Compound 30] was run?
A: The pEC50 was 8.30 to 9.30.

Q: With CC(C)Oc1ccc(-c2nnc(-c3cccc4c3CC[C@@H]4NCCS(C)(=O)=O)s2)cc1C#N [Compound 31, (S)-2-isopropoxy-5-(5-(1-((2-(methylsulfonyl)ethyl)amino)-2,3-dihydro-1H-inden-4-yl)-1,3,4-thiadiazol-2-yl)benzonitrile] as the molecule, how does the pEC50 read?
A: The pEC50 was 9.30 to 10.30.

Q: CC(C)Oc1ccc(-c2nnc(-c3cccc4c3CC[C@@H]4NS(C)(=O)=O)s2)cc1C#N [Compound 33, (S)-N-(4-(5-(3-cyano-4-isopropoxyphenyl)-1,3,4-thiadiazol-2-yl)-2,3-dihydro-1H-inden-1-yl)methanesulfonamide] was tested. Which pEC50 did it give?
A: The pEC50 was 9.30 to 10.30.

Q: COCCS(=O)(=O)N[C@H]1CCc2c(-c3nnc(-c4ccc(OC(C)C)c(C#N)c4)s3)cccc21 [Compound 35] was tested. Which pEC50 did it give?
A: Its pEC50 is 9.30 to 10.30.

Q: How did the pEC50 turn out when CC(C)Oc1ccc(-c2nnc(-c3cccc4c3CC[C@@H]4NCC(=O)N3CCCC3)s2)cc1C#N [Compound 39] was run?
A: Its pEC50 is 9.30 to 10.30.

Q: How did the pEC50 turn out when CC(C)Oc1ccc(-c2nnc(-c3cccc4c3CC[C@@H]4NS(=O)(=O)CC(=O)O)s2)cc1C#N [Compound 40, (S)-2-(N-(4-(5-(3-cyano-4-isopropoxyphenyl)-1,3,4-thiadiazol-2-yl)-2,3-dihydro-1H-inden-1-yl)sulfamoyl)acetic acid] was run?
A: Its pEC50 is 9.30 to 10.30.

Q: CC(C)Oc1ccc(-c2nnc(-c3cccc4c3CC[C@@H]4NS(=O)(=O)CC(=O)N(C)C)s2)cc1C#N [Compound 42, (S)-2-(N-(4-(5-(3-cyano-4-isopropoxyphenyl)-1,3,4-thiadiazol-2-yl)-2,3-dihydro-1H-inden-1-yl)sulfamoyl)-N,N-dimethylacetamide] was tested. Which pEC50 did it give?
A: The pEC50 was 9.30 to 10.30.

Q: With CC(C)Oc1ccc(-c2nnc(-c3cccc4c3CC[C@@H]4NS(=O)(=O)CC(N)=O)s2)cc1C#N [Compound 44] as the molecule, how does the pEC50 read?
A: The pEC50 was over 10.30.

Q: With CC(C)Oc1ccc(-c2nnc(-c3cccc4c3CC[C@@H]4NS(=O)(=O)CCO)s2)cc1C#N [Compound 45, (S)-N-(4-(5-(3-cyano-4-isopropoxyphenyl)-1,3,4-thiadiazol-2-yl)-2,3-dihydro-1H-inden-1-yl)-2-hydroxyethanesulfonamide] as the molecule, how does the pEC50 read?
A: Its pEC50 is 9.30 to 10.30.

Q: How did the pEC50 turn out when CC(C)Oc1ccc(-c2nnc(-c3cccc4c3CC[C@@H]4NC(=O)N3CC(C(=O)O)C3)s2)cc1C#N [Compound 50] was run?
A: Its pEC50 is 9.30 to 10.30.

Q: How did the pEC50 turn out when CC(C)Oc1ccc(-c2nnc(-c3cccc4c3CC[C@H]4NC(=O)N3CCCC3)s2)cc1C#N [Compound 52] was run?
A: Its pEC50 is 9.30 to 10.30.

Q: With CC(C)Oc1ccc(-c2nnc(-c3cccc4c3CC[C@@H]4NC(=O)N3CCCC3)s2)cc1C#N [Compound 53] as the molecule, how does the pEC50 read?
A: The pEC50 was 8.30 to 9.30.

Q: With CC(C)Oc1ccc(-c2nnc(-c3cccc4c3CC[C@@H]4NC(=O)N3CC[C@H](O)C3)s2)cc1C#N [Compound 54] as the molecule, how does the pEC50 read?
A: Its pEC50 is 9.30 to 10.30.

Q: How did the pEC50 turn out when CC(C)Oc1ccc(-c2nnc(-c3cccc4c3CC[C@@H]4NC(=O)N3CC[C@H](O)C3)s2)cc1C#N [Compound 55] was run?
A: The pEC50 was 8.30 to 9.30.

Q: CC(C)Oc1ccc(-c2nnc(-c3cccc4c3CC[C@@H]4NC(=O)N3CCC[C@H](O)C3)s2)cc1C#N [Compound 60] was tested. Which pEC50 did it give?
A: Its pEC50 is 8.30 to 9.30.

Q: How did the pEC50 turn out when CC(C)Oc1ccc(-c2nnc(-c3cccc4c3CC[C@@H]4NC(=O)N3CCC[C@H](O)C3)s2)cc1C#N [Compound 61] was run?
A: The pEC50 was 9.30 to 10.30.

Q: With CC(C)Oc1ccc(-c2nnc(-c3cccc4c3CC[C@@H]4NC(=O)N3CCC(O)CC3)s2)cc1C#N [Compound 62] as the molecule, how does the pEC50 read?
A: Its pEC50 is 8.30 to 9.30.
